Key:
[1] = tested on: HBV (HepG2.117 cell line, inducibly HBV producing); experiment: Anti-HBV activity, intracellular HBV DNA by real-time PCR in HepG2.117 cell line; format: cell-based, hepatitis B virus; settings: HepG2.117 cells, 3 days of treatment
Description: The anti HBV activity was measured using the HepG2.117 cell line, a stable, inducibly HBV producing cell line, which replicates HBV in the absence of doxycycline (Tet-off system). The HepG2 cell line is available from ATCCR under number HB-8065. Transfection of the HepG2 cell line can be as described in Sun and Nassal 2006 Journal of Hepatology 45 (2006) 636-645 “Stable HepG2- and Huh7-based human hepatoma cell lines for efficient regulated expression of infectious hepatitis B virus”.
For the antiviral assay, HBV replication was induced, followed by a treatment with serially diluted compound in 96-well plates. After 3 days of treatment, the antiviral activity was determined by quantification of intracellular HBV DNA using real-time PCR and an HBV specific primer set and probe.

[2] = Cytotoxicity, ATPlite Luminescence Assay; format: cell-based, human; settings: human, HepG2 or HepG2.117 cells, 3-days incubation unless marked with *
Description: Cytotoxicity of the compounds was tested using HepG2 or HepG2.117 cells, incubated for 3 or 4 days in the presence of compounds. The viability of the cells was assessed using the PERKIN ELMER ATPlite Luminescence Assay System.”

[3] = Human liver microsome stability; format: in vitro ADME; settings: 1 μM compound, NADPH 1 mM, 37° C., 0-60 min; for half-life at 1 μM: human, pooled human liver microsomes, pH 7.4, pooled human liver microsomes 0.5 mg/mL, read-out: HLM Metabolism t1/2; for HLM Metabolism t1/2: pooled human liver microsomes 0.5 mg/mL
Description: Human Liver Microsome Stability t½ (Min) of Compounds of Formula (I) […] All incubations are performed singularly for each compound. NADPH was added to initiate the reaction with the final concentration of 1 mM and the final incubation volume of 400 μL. At 6 time points (0, 5, 10, 20, 40 and 60 min) reactions were stopped by the removal of 50 μL of the incubation mixture into plates containing acetonitrile at a of 1:3 (v:v). The plates were centrifuged at 3000 rpm for 10 min at 4° C. to precipitate the protein. Following protein precipitation, the sample supernatants were combined in cassettes of up to 8 compounds. The internal standard was added (1:1 supernatant to internal standard solution) and samples were analyzed using standard LC-MS conditions. From a plot of ln peak area ratio (compound peak area/internal standard peak area) against time, the gradient of the line is determined. Subsequently, half-life is calculated using the equations below: Elimination rate constant (k)=(−gradient) […]

[4] = Hepatitis B virus, HepG2.117, 72 h

Row | SMILES | EC50 [1, 4] | CC50 at 3 days [2] | half-life at 1 μM [3] | EC50 [1] | HLM Metabolism t1/2 [3]
1 | CC(C)Oc1cc(C(C)N2C[C@@H](C)n3nc4c(c3C2=O)CN(C(=O)c2ccc(Cl)c(C(F)(F)F)c2)[C@H](C)C4)ccn1 (single isomer, unassigned) [Compound 48A, (3R,7R)-2-(4-chloro-3-(trifluoromethyl)benzoyl)-9-((R*)-1-(2-isopropoxypyridin-4-yl)ethyl)-3,7-dimethyl-1,2,3,4,8,9-hexahydropyrido[4′,3′:3,4]pyrazolo [1,5-a]pyrazin-10(7H)-one] | 0.052 µM | 22.1 µM | 2.22 h |  | 
2 | CC(c1ccc(C(F)(F)F)nc1)N1C[C@@H](C)n2nc3c(c2C1=O)CN(C(=O)c1ccc(Cl)c(C#N)c1)[C@H](C)C3 (single isomer, unassigned) [Compound 12A, 2-Chloro-5-((3R,7R)-3,7-dimethyl-10-oxo-9-((R*)-1-(6-(trifluoromethyl)pyridin-3-yl)ethyl)-1,2,3,4,7,8,9,10-octahydropyrido[4′,3′:3,4]pyrazolo[1,5-a]pyrazine-2-carbonyl)benzonitrile] |  | > 50 µM | > 3 h | 0.6 µM | 
3 | CC(c1ccc(C(C)(C)O)nc1)N1C[C@@H](C)n2nc3c(c2C1=O)CN(C(=O)c1ccc(Cl)c(F)c1)[C@H](C)C3 (single isomer, unassigned) [Compound 59A, (3R,7R)-2-(4-chloro-3-fluorobenzoyl)-9-((R*)-1-(6-(2-hydroxypropan-2-yl)pyridin-3-yl)ethyl)-3,7-dimethyl-1,2,3,4,8,9-hexahydropyrido[4′,3′:3,4]pyrazolo[1,5-a]pyrazin-10(7H)-one] |  | > 50 µM | > 3 h | 0.51 µM | 
4 | CC(c1ccn(C(F)F)c(=O)c1)N1C[C@@H](C)n2nc3c(c2C1=O)CN(C(=O)c1ccc(Cl)c(C(F)(F)F)c1)[C@H](C)C3 (single isomer, unassigned) [Compound 49A, (3R,7R)-2-(4-chloro-3-(trifluoromethyl)benzoyl)-9-((R*)-1-(1-(difluoromethyl)-2-oxo-1,2-dihydropyridin-4-yl)ethyl)-3,7-dimethyl-1,2,3,4,8,9-hexahydropyrido [4′,3′:3,4]pyrazolo[1,5-a]pyrazin-10(7H)-one] |  | > 50 µM |  | 0.041 µM | 1.32 h
5 | CC(c1ccn(CC(F)(F)F)c(=O)c1)N1C[C@@H](C)n2nc3c(c2C1=O)CN(C(=O)c1ccc(Cl)c(Cl)c1)[C@H](C)C3 (single isomer, unassigned) [Compound 51A, (3R,7R)-2-(3,4-dichlorobenzoyl)-3,7-dimethyl-9-((R*)-1-(2-oxo-1-(2,2,2-trifluoroethyl)-1,2-dihydropyridin-4-yl)ethyl)-1,2,3,4,8,9-hexahydropyrido[4′,3′:3,4]pyrazolo[1,5-a]pyrazin-10(7H)-one] |  | > 50 µM | > 3 h | 0.06 µM | 
6 | CC(c1ccc(-n2cncn2)nc1)N1C[C@@H](C)n2nc3c(c2C1=O)CN(C(=O)c1ccc(Cl)c(Cl)c1)[C@H](C)C3 (single isomer, unassigned) [Compound 5A, (3R,7R)-9-((R*)-1-(6-(1H-1,2,4-Triazol-1-yl)pyridin-3-yl)ethyl)-2-(3,4-dichlorobenzoyl)-3,7-dimethyl-1,2,3,4,8,9-hexahydropyrido[4′,3′:3,4]pyrazolo[1,5-a]pyrazin-10(7H)-one] |  | > 50 µM | > 3 h | 0.087 µM | 
7 | CC(c1cnc(N2CCOC[C@@H]2C)nc1)N1C[C@@H](C)n2nc3c(c2C1=O)CN(C(=O)c1ccc(Cl)c(C(F)(F)F)c1)[C@H](C)C3 (single isomer, unassigned) [Compound 38A, (3R,7R)-2-(4-chloro-3-(trifluoromethyl)benzoyl)-3,7-dimethyl-9-((R*)-1-(2-((S)-3-methylmorpholino)pyrimidin-5-yl)ethyl)-1,2,3,4,8,9-hexahydropyrido[4′,3′:3,4]pyrazolo[1,5-a]pyrazin-10(7H)-one] |  | 47 µM | 1.01 h | 0.06 µM | 
8 | Cc1nnn(-c2ccc(C(C)N3C[C@@H](C)n4nc5c(c4C3=O)CN(C(=O)c3ccc(Cl)c(Cl)c3)[C@H](C)C5)cc2)n1 (single isomer, unassigned) [Compound 22A, (3R,7R)-2-(3,4-dichlorobenzoyl)-3,7-dimethyl-9-((R*)-1-(4-(5-methyl-2H-tetrazol-2-yl)phenyl)ethyl)-1,2,3,4,8,9-hexahydropyrido[4′,3′:3,4]pyrazolo[1,5-a]pyrazin-10(7H)-one] | 0.034 µM | > 50 µM | 1.35 h |  | 
9 | C[C@@H]1Cc2nn3c(c2CN1C(=O)c1ccc(Cl)c(Cl)c1)C(=O)N([C@H](C)c1ccc([S@](C)(=N)=O)cc1)C[C@H]3C (relative stereo) [Compound 18A, (3R,7R)-2-(3,4-dichlorobenzoyl)-3,7-dimethyl-9-((R*)-1-(4-((R*)—S-methylsulfonimidoyl)phenyl)ethyl)-1,2,3,4,8,9-hexahydropyrido[4′,3′:3,4]pyrazolo[1,5-a]pyrazin-10(7H)-one] | 0.084 µM | > 50 µM | > 3 h |  | 
10 | C[C@@H]1Cc2nn3c(c2CN1C(=O)c1ccc(Cl)c(C(F)(F)F)c1)C(=O)N([C@@H](C)c1ccc([S@](C)(=N)=O)cc1)C[C@H]3C (relative stereo) [Compound 19C, (3R,7R)-2-(4-chloro-3-(trifluoromethyl)benzoyl)-3,7-dimethyl-9-((S*)-1-(4-((R*)—S-methylsulfonimidoyl)phenyl)ethyl)-1,2,3,4,8,9-hexahydropyrido[4′,3′:3,4]pyrazolo[1,5-a]pyrazin-10(7H)-one] | 0.011 µM | > 50 µM | > 3 h |  | 
11 | CC(c1cn(C2CC2)c(=O)cn1)N1C[C@@H](C)n2nc3c(c2C1=O)CN(C(=O)c1ccc(Cl)c(Cl)c1)[C@H](C)C3 (single isomer, unassigned) [Compound 56A, (3R,7R)-9-((R*)-1-(4-cyclopropyl-5-oxo-4,5-dihydropyrazin-2-yl)ethyl)-2-(3,4-dichlorobenzoyl)-3,7-dimethyl-1,2,3,4,8,9-hexahydropyrido[4′,3′:3,4]pyrazolo[1,5-a]pyrazin-10(7H)-one] |  | > 50 µM | > 3 h | 0.29 µM | 
12 | C[C@@H]1Cc2nn3c(c2CN1C(=O)c1ccc(Cl)c(C(F)(F)F)c1)C(=O)N([C@@H](C)c1ccc([S@@](C)(=N)=O)cc1)C[C@H]3C (relative stereo) [Compound 19D, (3R,7R)-2-(4-chloro-3-(trifluoromethyl)benzoyl)-3,7-dimethyl-9-((S*)-1-(4-((S*)—S-methylsulfonimidoyl)phenyl)ethyl)-1,2,3,4,8,9-hexahydropyrido[4′,3′:3,4]pyrazolo[1,5-a]pyrazin-10(7H)-one] | 0.011 µM | > 50 µM | > 3 h |  | 
13 | C[C@@H]1Cc2nn3c(c2CN1C(=O)c1ccc(Cl)c(Cl)c1)C(=O)N([C@@H](C)c1ccc([S@@](C)(=N)=O)cc1)C[C@H]3C (relative stereo) [Compound 18D, (3R,7R)-2-(3,4-dichlorobenzoyl)-3,7-dimethyl-9-((S*)-1-(4-((S*)—S-methylsulfonimidoyl)phenyl)ethyl)-1,2,3,4,8,9-hexahydropyrido[4′,3′:3,4]pyrazolo[1,5-a]pyrazin-10(7H)-one] | 0.024 µM | > 50 µM | > 3 h |  | 
14 | Cc1ccc(C(C)N2C[C@@H](C)n3nc4c(c3C2=O)CN(C(=O)c2ccc(Cl)c(Cl)c2)[C@H](C)C4)nn1 (single isomer, unassigned) [Compound 6A, (3R,7R)-2-(3,4-dichlorobenzoyl)-3,7-dimethyl-9-((R*)-1-(6-methylpyridazin-3-yl)ethyl)-1,2,3,4,8,9-hexahydropyrido[4′,3′:3,4]pyrazolo[1,5-a]pyrazin-10(7H)-one] | 0.086 µM | > 50 µM |  |  | 1.18 h
15 | C[C@@H]1Cc2nn3c(c2CN1C(=O)c1ccc(Cl)c(Cl)c1)C(=O)N([C@@H](C)c1ccc(C#N)cc1)CC3 [Ref 5, reference compound] |  | > 50 µM |  |  | 
16 | C[C@@H]1Cc2nn3c(c2CN1C(=O)c1ccc(Cl)c(Cl)c1)C(=O)N([C@H](C)c1ccc(C#N)cc1)CC3 [Ref 4, reference compound] |  | > 50 µM |  |  | 
17 | CC(c1ccccn1)N1CCn2nc3c(c2C1=O)CN(C(=O)c1ccc(Cl)c(Cl)c1)[C@H](C)C3 (mixture of isomers) [Ref 3, reference compound] |  | > 50 µM |  |  | 

Source: patent publication US20240287070A1, “FUSED HETEROCYCLIC DERIVATIVES” (Janssen Sciences Ireland Unlimited Company, priority 2021, published 2024)
